The text below walks through data of publication PMC8213057, “Targeting ALK2: An Open Science Approach to Developing Therapeutics for the Treatment of Diffuse Intrinsic Pontine Glioma” (Journal of Medicinal Chemistry, 2020).

One experiment has as its target T1, DRAK1/STK17A (Homo sapiens, UniProt Q9UEE5).
T1 sequence (Q9UEE5 1-414): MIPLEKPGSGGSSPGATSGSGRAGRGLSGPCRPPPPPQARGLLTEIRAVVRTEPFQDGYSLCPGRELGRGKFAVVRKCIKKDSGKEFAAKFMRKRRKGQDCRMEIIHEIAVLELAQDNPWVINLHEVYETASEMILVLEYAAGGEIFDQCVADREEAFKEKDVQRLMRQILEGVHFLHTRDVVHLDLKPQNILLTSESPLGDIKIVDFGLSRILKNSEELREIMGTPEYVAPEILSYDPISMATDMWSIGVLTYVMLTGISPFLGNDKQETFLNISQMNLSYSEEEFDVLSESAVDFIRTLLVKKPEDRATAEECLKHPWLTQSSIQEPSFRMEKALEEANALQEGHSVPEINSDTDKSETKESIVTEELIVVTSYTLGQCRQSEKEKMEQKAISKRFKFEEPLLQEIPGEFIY
Description: biochemical. To be noted: read-out: % enzyme activity, 1 μM; Run 1, Run 2.

For another experiment, the target named is T2, MASTL (Homo sapiens, UniProt Q96GX5).
T2 sequence (Q96GX5 1-879): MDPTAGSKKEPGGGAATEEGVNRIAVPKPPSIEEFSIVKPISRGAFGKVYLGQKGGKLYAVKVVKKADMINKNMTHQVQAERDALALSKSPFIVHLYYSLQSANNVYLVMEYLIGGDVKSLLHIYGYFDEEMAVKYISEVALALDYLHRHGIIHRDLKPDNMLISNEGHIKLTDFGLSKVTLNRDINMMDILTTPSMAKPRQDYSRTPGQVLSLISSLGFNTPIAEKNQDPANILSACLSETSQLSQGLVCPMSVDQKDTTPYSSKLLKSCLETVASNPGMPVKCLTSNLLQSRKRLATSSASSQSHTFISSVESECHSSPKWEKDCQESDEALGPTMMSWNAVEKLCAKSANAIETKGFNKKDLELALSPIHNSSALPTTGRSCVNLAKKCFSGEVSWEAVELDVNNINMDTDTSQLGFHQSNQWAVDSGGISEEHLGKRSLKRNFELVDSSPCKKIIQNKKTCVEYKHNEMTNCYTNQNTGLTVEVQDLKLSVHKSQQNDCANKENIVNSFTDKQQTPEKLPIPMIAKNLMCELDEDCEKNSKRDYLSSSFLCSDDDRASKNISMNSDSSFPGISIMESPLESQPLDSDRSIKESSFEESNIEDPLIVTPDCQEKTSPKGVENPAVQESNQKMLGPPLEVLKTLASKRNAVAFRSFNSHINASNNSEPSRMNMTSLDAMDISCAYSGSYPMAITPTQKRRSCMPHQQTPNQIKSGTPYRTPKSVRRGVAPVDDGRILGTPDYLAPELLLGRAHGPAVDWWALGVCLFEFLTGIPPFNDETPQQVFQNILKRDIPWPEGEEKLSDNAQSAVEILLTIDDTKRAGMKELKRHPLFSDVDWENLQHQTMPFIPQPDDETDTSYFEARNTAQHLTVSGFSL
To be noted: 1 μM; Run 1, Run 2.

The next experiment has as its target T3, TLK1 (Homo sapiens, UniProt Q9UKI8).
T3 sequence (Q9UKI8 1-766): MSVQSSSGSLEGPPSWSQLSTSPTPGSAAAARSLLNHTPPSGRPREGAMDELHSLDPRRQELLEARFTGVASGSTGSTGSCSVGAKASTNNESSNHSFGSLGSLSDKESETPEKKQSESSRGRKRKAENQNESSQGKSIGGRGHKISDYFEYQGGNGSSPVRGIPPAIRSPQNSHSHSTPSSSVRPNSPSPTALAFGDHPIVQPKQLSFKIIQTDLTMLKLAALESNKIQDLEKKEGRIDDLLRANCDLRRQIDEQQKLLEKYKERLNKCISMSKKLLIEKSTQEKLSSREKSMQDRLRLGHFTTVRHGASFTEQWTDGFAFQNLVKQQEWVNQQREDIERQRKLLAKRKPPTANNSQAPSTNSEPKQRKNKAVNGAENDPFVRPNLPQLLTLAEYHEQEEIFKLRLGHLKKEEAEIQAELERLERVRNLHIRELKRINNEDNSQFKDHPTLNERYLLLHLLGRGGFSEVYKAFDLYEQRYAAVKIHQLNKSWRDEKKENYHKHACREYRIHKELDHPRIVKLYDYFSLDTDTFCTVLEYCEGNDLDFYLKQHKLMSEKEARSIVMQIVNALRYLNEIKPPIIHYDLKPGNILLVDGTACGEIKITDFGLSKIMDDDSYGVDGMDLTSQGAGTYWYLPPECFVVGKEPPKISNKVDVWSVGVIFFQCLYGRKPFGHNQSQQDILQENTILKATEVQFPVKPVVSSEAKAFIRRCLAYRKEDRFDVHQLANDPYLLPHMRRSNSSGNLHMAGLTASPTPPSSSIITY
To be noted: 1 μM; Run 1, Run 2.

Another experiment concerns the target PAK1 (Homo sapiens, UniProt Q13153). To be noted: 1 μM; Run 1, Run 2.
A further experiment addresses CDK2/Cyclin A1 (Homo sapiens, UniProt P24941). Kind of experiment: biochemical. To be noted: read-out: % enzyme activity, 1 μM; Run 1, Run 2.
A further experiment addresses PAK5 (Homo sapiens, UniProt Q9P286). To be noted: 1 μM; Run 1, Run 2.
The target in a further experiment is T4, MAK (Homo sapiens, UniProt P20794).
T4 sequence (P20794 1-623): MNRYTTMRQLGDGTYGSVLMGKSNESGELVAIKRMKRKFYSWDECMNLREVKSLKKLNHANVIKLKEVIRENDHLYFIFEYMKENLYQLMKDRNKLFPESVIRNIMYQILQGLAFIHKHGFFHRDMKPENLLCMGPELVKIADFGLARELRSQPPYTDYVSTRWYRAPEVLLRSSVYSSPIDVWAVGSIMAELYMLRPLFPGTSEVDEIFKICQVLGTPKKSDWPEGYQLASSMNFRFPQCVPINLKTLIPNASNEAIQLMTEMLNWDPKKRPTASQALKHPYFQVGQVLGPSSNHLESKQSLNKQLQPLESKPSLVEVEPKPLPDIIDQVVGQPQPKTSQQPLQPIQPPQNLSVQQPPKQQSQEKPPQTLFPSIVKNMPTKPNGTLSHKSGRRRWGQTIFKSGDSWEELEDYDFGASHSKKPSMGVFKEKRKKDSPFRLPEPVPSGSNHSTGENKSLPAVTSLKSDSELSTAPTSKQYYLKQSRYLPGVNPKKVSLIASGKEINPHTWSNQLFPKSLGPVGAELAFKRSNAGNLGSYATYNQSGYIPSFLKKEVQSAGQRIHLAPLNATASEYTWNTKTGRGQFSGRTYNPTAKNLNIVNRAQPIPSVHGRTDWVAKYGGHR
To be noted: 1 μM; Run 1, Run 2.

For a further experiment, the target named is TRKC (Homo sapiens, UniProt Q16288). Kind of experiment: biochemical. To be noted: read-out: % enzyme activity, 1 μM; Run 1, Run 2.

Each structure is given as a SMILES string. “And” between values parts separate entries of the source, which are not always exact repeats. Equal entries are not always repeated.

TRKC, sequence (Q16288 32-839): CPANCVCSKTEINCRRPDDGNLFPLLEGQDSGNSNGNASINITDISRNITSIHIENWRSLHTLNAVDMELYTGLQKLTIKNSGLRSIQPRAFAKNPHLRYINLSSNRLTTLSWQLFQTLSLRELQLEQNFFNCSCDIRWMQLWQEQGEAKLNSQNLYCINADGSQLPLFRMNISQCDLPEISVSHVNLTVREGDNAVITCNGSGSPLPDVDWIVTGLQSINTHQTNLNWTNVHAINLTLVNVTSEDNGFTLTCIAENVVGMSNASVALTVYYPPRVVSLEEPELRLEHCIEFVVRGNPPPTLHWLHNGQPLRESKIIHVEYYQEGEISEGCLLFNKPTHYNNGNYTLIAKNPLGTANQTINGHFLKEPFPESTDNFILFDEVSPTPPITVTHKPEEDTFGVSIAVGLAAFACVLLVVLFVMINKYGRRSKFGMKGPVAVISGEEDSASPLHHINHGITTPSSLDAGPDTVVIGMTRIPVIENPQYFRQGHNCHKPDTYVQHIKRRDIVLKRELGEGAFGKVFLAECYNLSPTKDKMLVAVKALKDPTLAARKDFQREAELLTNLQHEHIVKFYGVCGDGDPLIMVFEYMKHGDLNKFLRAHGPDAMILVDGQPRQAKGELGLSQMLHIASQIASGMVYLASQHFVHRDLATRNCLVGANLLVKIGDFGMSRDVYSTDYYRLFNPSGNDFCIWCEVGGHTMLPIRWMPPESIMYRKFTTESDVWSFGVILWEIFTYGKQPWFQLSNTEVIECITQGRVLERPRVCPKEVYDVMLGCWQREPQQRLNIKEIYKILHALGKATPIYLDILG
PAK5, sequence (Q9P286 whole entry): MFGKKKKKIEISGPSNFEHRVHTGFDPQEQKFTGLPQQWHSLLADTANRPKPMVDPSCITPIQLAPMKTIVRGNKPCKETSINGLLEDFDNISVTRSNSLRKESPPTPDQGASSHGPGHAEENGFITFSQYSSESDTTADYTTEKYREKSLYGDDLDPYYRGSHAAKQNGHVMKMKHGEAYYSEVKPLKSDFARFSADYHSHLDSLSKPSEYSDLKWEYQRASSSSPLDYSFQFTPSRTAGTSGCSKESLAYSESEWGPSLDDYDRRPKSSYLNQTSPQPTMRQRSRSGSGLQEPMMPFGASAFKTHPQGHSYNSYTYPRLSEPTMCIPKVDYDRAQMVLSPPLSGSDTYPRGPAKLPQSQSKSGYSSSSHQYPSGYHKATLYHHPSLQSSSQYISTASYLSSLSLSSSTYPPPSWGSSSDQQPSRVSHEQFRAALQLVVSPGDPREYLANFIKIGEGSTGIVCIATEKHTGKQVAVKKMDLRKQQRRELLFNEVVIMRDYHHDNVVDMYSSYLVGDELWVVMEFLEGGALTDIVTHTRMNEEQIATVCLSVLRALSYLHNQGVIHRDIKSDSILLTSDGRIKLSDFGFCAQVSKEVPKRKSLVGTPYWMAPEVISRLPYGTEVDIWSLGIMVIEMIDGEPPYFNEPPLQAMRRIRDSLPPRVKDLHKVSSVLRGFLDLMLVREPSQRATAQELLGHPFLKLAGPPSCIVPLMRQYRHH
PAK1, sequence (Q13153 whole entry): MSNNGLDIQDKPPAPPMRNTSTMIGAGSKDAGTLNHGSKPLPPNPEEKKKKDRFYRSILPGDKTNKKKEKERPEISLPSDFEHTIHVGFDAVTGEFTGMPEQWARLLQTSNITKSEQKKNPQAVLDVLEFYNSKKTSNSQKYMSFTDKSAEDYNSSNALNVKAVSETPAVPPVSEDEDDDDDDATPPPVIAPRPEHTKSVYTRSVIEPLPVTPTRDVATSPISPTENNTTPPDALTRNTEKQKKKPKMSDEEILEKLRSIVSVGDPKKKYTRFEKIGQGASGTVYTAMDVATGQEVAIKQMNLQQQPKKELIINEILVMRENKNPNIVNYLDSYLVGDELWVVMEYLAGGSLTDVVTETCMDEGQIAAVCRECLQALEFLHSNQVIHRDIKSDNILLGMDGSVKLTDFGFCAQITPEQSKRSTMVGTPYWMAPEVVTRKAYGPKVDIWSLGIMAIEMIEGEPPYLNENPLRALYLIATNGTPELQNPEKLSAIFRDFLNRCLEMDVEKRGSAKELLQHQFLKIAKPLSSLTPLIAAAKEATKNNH

Turning to `COc1cc(-c2cncc(-c3ccc(N4C[C@@H](C)N(C)[C@@H](C)C4)cc3)c2C)cc(F)c1C(N)=O` [Compound 26c, 2-Fluoro-6-methoxy-4-(4-methyl-5-(4-((3R,5S)-3,4,5-trimethylpiperazin-1-yl)phenyl)pyridin-3-yl)benzamide], the figures for the remaining activity at 1 µM at DRAK1/STK17A, on CDK2/Cyclin A1 and on TRKC were 96.6%, 98.2% and 99%, respectively. For the same compound, the “% enzyme activity” value on MASTL amounted to 100.30%; on TLK1, 100.84%; on PAK1, 100.98%; at PAK5, 94.99%; at MAK, 100.81%. In the experiment on KHS/MAP4K5, the % enzyme activity at 1 μM was 41.7% and 40.6%.
On to `COc1cc(-c2cncc(-c3ccc(N4CCN(C)CC4)cc3)c2C)cc(F)c1C(N)=O` [Compound 26a, 2-Fluoro-6-methoxy-4-(4-methyl-5-(4-(4-methylpiperazin-1-yl)phenyl)pyridin-3-yl)benzamide], for which the remaining activity at 1 µM on DRAK1/STK17A was 96.4%; on CDK2/Cyclin A1, 99.9%; on TRKC, 103%. Besides, the “% enzyme activity” value on MASTL was determined as 98.59%; at TLK1 it was 107.91%; on PAK1, 102.29%; on PAK5 it was 92.74%; at MAK, 98.28%. Further, the % enzyme activity at 1 μM in the experiment with KHS/MAP4K5 was 39.7% and 39.3%.
